How the values were obtained:
Assay type in all cases: biochemical
[1] = molecular target: T1, calpain-I isolated from human erythrocytes (Homo sapiens, UniProt P07384); assay: Calpain I kinetic fluorescence enzyme inhibition assay; details: apparent Ki from IC50 by Cheng-Prussoff; average of 2 to 4 dose-effect plots
T1 construct: calpain-I—isolated from human erythrocytes; purchased Calbiochem 208713; host or cells: human erythrocytes (tissue isolate)
T1 sequence (P07384 1-714): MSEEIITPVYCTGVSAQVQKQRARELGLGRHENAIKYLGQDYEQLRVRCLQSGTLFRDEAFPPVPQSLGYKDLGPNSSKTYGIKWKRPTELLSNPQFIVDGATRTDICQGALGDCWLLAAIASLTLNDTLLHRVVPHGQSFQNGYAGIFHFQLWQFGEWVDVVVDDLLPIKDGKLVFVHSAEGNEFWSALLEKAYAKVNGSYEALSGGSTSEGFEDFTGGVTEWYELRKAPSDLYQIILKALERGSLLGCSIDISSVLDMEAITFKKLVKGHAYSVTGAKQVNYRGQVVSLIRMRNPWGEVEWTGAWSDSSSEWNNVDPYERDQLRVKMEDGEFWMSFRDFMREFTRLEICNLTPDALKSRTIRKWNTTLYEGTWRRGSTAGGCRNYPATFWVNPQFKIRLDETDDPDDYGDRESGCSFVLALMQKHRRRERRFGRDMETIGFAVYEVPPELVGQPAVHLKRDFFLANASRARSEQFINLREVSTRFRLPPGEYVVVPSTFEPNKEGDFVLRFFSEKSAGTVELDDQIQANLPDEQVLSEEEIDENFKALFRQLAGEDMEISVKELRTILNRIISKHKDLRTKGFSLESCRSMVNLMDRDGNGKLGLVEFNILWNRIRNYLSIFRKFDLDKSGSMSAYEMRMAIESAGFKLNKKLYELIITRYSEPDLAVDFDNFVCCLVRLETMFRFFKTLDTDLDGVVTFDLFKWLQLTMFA
T1 sequence (P04632 1-268 partner): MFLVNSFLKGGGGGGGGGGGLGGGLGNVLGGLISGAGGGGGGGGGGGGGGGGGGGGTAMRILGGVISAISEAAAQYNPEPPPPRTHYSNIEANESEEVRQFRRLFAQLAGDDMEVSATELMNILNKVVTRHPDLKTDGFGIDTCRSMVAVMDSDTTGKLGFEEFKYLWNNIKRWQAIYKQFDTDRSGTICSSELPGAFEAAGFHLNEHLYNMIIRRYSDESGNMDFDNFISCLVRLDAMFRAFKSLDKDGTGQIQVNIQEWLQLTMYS

[2] = molecular target: T2, cathepsin B isolated from human liver (Homo sapiens, UniProt P07858); assay: Cathepsin B kinetic fluorescence enzyme inhibition assay; details: selectivity ratio versus calpain I
T2 construct: cathepsin B—isolated from human liver; purchased Calbiochem 219362; host or cells: human liver (tissue isolate)
Experimental: (§1) The following solutions and buffers were employed: • HBS (for 40 ml): 800 μl M HEPES; 2.16 ml 100 mM KCl; 4.8 ml 1M NaCl; 3.59 ml 5% glucose; 60 μl μM MgSO4; 400 μl 100 mM Na pyruvate, 28.19 ml water; pH 7.2-7.5. • lysis buffer (for 20 ml): 400 μl M Tris pH 8.2; 2.74 ml 1M NaCl; 520 μl 0.5M EDTA; 2 ml 10% triton X-100; 0.8 ml (=1:25) CompletePlus (1 tablet/2 ml H2O); 200 μl 100 mM Pefabloc; 13.34 ml water, pH 8.2. • TBST (10×) (for 1 l): 100 mM Tris (12.1 g); 1.5M NaCl (87 g); 1% Tween 20 (10 g), adjusted to pH 8. I Enzyme Inhibition In Vitro: • Testing for blockade of the corresponding enzymic activities was carried out by means of kinetic fluorescence assays (excitation 390 nm, emission 460 nm). • Apparent Ki values were calculated from the experimentally determined IC50 values by the Cheng-Prussoff relation assuming a reversible competitive enzyme inhibition. The Km values of the substrates used under the assay conditions indicated above were: 90 μM (Z-Phe-Arg-AMC, cathepsin B), 10 μM (Z-Gly-Pro-Arg-AMC, cathepsin K), 2 μM (Z-Phe-Arg-AMC, cathepsin L), and 30 μM (Z-Val-Val-Arg-AMC, cathepsin S). • The indicated Ki values are averages of the inhibition constants calculated on the basis of 2 to 4 independent dose-effect plots.
(§2) The following assays were used: • 1. Calpain I: • 20 nM calpain-I—isolated from human erythrocytes (Calbiochem #208713), 100 μM Suc-Leu-Tyr-AMC (Bachem #1-1355) as substrate in buffer with 62 mM imidazole, 0.3 mM CaCl2, 0.10% CHAPS, 0.05% BSA, 1 mM DTT at pH 7.3 and room temperature. • 2. Cathepsin B: • 0.25 nM cathepsin B—isolated from human liver (Calbiochem #219362), 100 μM Z-Phe-Arg-AMC (Bachem #I-1160) as substrate 50 mM MES, 2 mM EDTA, 0.05% Brij 35, 2.5 mM L-cysteine, pH 6.0, room temperature. • 3. Cathepsin K: • 3 nM cathepsin K—activated from recombinant human procathepsin K from E. coli (Calbiochem #342001), 10 μM Z-Gly-Pro-Arg-AMC (Biomol #P-142) as substrate in 50 mM MES, 2 mM EDTA, 0.05% Brij 35, 2.5 mM L-cysteine, pH 6.0, room temperature. • 4. Cathepsin L: • 1 nM cathepsin L—isolated from human liver (Calbiochem #219402), 2 μM Z-Phe-Arg-AMC (Bachem #1-1160) as substrate in 50 mM MES, 2 mM EDTA, 0.05% Brij 35, 2.5 mM L-cysteine, pH 6.0, room temperature. • 5. Cathepsin S: • 0.5 nM recombinant human cathepsin S from E. coli (Calbiochem #219343), 20 μM Z-Val-Val-Arg-AMC (Bachem #1-1540) as substrate in 50 mM MES, 2 mM EDTA, 0.05% Brij 35, 2.5 mM L-cysteine, pH 6.0, room temperature. • The results of the in vitro determination are indicated in Table 1. The following abbreviations are used in Table 1: • The “Calpain activity” column, ++ stands for a calpain Ki (Ki(calpain)) of ≦40 nM and + means: 40 nM<Ki(Calpain)≦100 nM. • The “Sel. cat. B” column indicates the Ki(cathepsin B)/Ki(calpain) ratio. In this connection, ++ means a Ki(cathepsin B)/Ki(calpain) ratio of ≧30 and + means 10≦Ki(cathepsin B)/Ki(calpain)<30. • The “Sel. cat. K” column indicates the Ki(cathepsin K)/Ki(calpain) ratio. In this connection, ++ means a Ki(cathepsin K)/Ki(calpain) ratio of ≧30 and + means 10≦Ki(cathepsin K)/Ki(calpain)<30. • The “Sel. cat. L” column indicates the Ki(cathepsin L)/Ki(calpain) ratio. In this connection, ++ means a Ki(cathepsin L)/Ki(calpain) ratio of ≧50 and + means 30≦Ki(cathepsin L)/Ki(calpain)<50. • The “Sel. cat. S” column indicates the Ki(cathepsin S)/Ki(calpain) ratio. In this connection, ++ means a Ki(cathepsin S)/Ki(calpain) ratio of ≧100 and + means 50≦Ki(cathepsin S)/Ki(calpain)<100.

[3] = molecular target: T3, cathepsin K activated from recombinant human procathepsin K (Homo sapiens, UniProt P43235); assay: Cathepsin K kinetic fluorescence enzyme inhibition assay; details: selectivity ratio versus calpain I
T3 construct: purchased Calbiochem 342001; host or cells: E. coli
T3 sequence (P43235 115-329): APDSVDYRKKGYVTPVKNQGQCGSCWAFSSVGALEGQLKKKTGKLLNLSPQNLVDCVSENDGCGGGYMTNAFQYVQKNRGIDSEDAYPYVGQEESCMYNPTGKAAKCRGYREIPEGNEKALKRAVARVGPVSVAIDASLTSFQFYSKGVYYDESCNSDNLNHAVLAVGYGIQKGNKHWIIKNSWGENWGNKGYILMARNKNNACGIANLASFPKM
Experimental: as §1, §2

[4] = molecular target: T4, cathepsin L isolated from human liver (Homo sapiens, UniProt P07711); assay: Cathepsin L kinetic fluorescence enzyme inhibition assay; details: selectivity ratio versus calpain I
T4 construct: cathepsin L—isolated from human liver; purchased Calbiochem 219402; host or cells: human liver (tissue isolate)
Outline: (§3)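 cat B 0.25 nM + Z-Phe-Arg-AMC 100 μM; cat L 1 nM + Z-Phe-Arg-AMC 2 μM; cat S 0.5 nM (E. coli-expressed) + Z-Val-Val-Arg-AMC 20 μM. 50 mM MES pH 6.0, 2.5 mM L-Cys, RT. Ex 390/em 460, kinetic; Ki app = Cheng-Prusoff from IC50, mean of 2–4 curves.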

[5] = molecular target: T5, recombinant human cathepsin S (Homo sapiens, UniProt P25774); assay: Cathepsin S kinetic fluorescence enzyme inhibition assay; details: selectivity ratio versus calpain I
T5 construct: purchased Calbiochem 219343; host or cells: E. coli
Outline: as §3

T4 sequence (P07711 114-333): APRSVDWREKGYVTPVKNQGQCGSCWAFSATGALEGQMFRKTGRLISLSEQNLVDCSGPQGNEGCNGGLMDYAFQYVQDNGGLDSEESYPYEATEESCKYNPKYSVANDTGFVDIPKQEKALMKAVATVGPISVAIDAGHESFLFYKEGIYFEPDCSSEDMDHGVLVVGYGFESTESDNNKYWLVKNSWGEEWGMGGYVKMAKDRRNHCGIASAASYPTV
T5 sequence (P25774 115-331): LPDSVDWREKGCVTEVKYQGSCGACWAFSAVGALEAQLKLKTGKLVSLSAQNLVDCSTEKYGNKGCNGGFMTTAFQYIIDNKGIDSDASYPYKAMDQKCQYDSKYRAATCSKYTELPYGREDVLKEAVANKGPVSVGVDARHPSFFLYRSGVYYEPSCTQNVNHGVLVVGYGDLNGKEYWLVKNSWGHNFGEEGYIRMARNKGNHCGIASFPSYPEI

| SMILES | Ki [1] | Sel cat. B (Ki(cathepsin B)/Ki(calpain) ratio) [2] | Sel cat. K (Ki(cathepsin K)/Ki(calpain) ratio) [3] | Sel cat. L (Ki(cathepsin L)/Ki(calpain) ratio) [4] | Sel cat. S (Ki(cathepsin S)/Ki(calpain) ratio) [5] |
| --- | --- | --- | --- | --- | --- |
| NC(=O)C(=O)C(Cc1ccccc1)NC(=O)c1cc(Cl)cnc1-n1ccc(-c2ccccc2)n1 (centres unmarked) [Example 27, N-(3-Amino-1-benzyl-2,3-dioxopropyl)-5-chloro-2-(3-phenyl-1H-pyrazol-1-yl)nicotinamide] | ≤ 40 nM | ++ (Ki(cathepsin B)/Ki(calpain) ratio of ≧30) | + (10≦Ki(cathepsin K)/Ki(calpain)<30) | + (30≦Ki(cathepsin L)/Ki(calpain)<50) |  |
| NC(=O)C(=O)C(Cc1ccccc1)NC(=O)c1cc(Cl)cnc1-n1ccc(-c2ccc(N3CCOCC3)cc2)n1 (centres unmarked) [Example 31, N-(3-Amino-1-benzyl-2,3-dioxopropyl)-5-chloro-2-[3-(4-morpholin-4-ylphenyl)-1H-pyrazol-1-yl]nicotinamide] | ≤ 40 nM | ++ (Ki(cathepsin B)/Ki(calpain) ratio of ≧30) | + (10≦Ki(cathepsin K)/Ki(calpain)<30) | + (30≦Ki(cathepsin L)/Ki(calpain)<50) |  |
| NC(=O)C(=O)C(CC1CCCCC1)NC(=O)c1cccnc1-n1ccc(-c2ccccc2)n1 (centres unmarked) [Example 66, N-[3-Amino-1-(cyclohexylmethyl)-2,3-dioxopropyl]-2-(3-phenyl-1H-pyrazol-1-yl)nicotinamide] | ≤ 40 nM |  | + (10≦Ki(cathepsin K)/Ki(calpain)<30) | + (30≦Ki(cathepsin L)/Ki(calpain)<50) | ++ (Ki(cathepsin S)/Ki(calpain) ratio of ≧100) |
| NC(=O)C(=O)C(Cc1ccccc1)NC(=O)c1cccnc1-n1ccc(-c2cccc(N3CCCC3)c2)n1 (centres unmarked) [Example 74, N-(3-Amino-1-benzyl-2,3-dioxopropyl)-2-[3-(3-pyrrolidin-1-ylphenyl)-1H-pyrazol-1-yl]nicotinamide] | ≤ 40 nM | ++ (Ki(cathepsin B)/Ki(calpain) ratio of ≧30) | ++ (Ki(cathepsin K)/Ki(calpain) ratio of ≧30) |  | ++ (Ki(cathepsin S)/Ki(calpain) ratio of ≧100) |
| NC(=O)C(=O)C(Cc1ccccc1)NC(=O)c1cccnc1-n1ccc(-c2ccc3c(c2)CCO3)n1 (centres unmarked) [Example 75, N-(3-Amino-1-benzyl-2,3-dioxopropyl)-2-[3-(2,3-dihydrobenzo[b]furan-5-yl)-1H-pyrazol-1-yl]nicotinamide] | 40 to 100 nM |  | + (10≦Ki(cathepsin K)/Ki(calpain)<30) | ++ (Ki(cathepsin L)/Ki(calpain) ratio of ≧50) | ++ (Ki(cathepsin S)/Ki(calpain) ratio of ≧100) |
| N#Cc1cnc(-n2ccc(-c3ccccc3)n2)c(C(=O)NC(Cc2ccccc2)C(=O)C(N)=O)c1 (centres unmarked) [Example 82, N-(3-Amino-1-benzyl-2,3-dioxopropyl)-5-cyano-2-(3-phenyl-1H-pyrazol-1-yl)nicotinamide] | 40 to 100 nM | ++ (Ki(cathepsin B)/Ki(calpain) ratio of ≧30) | ++ (Ki(cathepsin K)/Ki(calpain) ratio of ≧30) | ++ (Ki(cathepsin L)/Ki(calpain) ratio of ≧50) |  |
| COc1ccc(OC)c(-c2ccn(-c3ncccc3C(=O)NC(Cc3ccccc3)C(=O)C(N)=O)n2)c1 (centres unmarked) [Example 151, N-[3-Amino-2,3-dioxo-1-(phenylmethyl)propyl]-2-{3-[2,5-bis(methyloxy)phenyl]-1H-pyrazol-1-yl}pyridine-3-carboxamide] | 40 to 100 nM | ++ (Ki(cathepsin B)/Ki(calpain) ratio of ≧30) | ++ (Ki(cathepsin K)/Ki(calpain) ratio of ≧30) | ++ (Ki(cathepsin L)/Ki(calpain) ratio of ≧50) |  |
| NC(=O)C(=O)C(Cc1ccccc1)NC(=O)c1cccnc1-n1ccc(C2CCCCC2)n1 (centres unmarked) [Example 192, N-[3-Amino-2,3-dioxo-1-(phenylmethyl)propyl]-2-(3-cyclohexyl-1H-pyrazol-1-yl)pyridine-3-carboxamide] | 40 to 100 nM |  | + (10≦Ki(cathepsin K)/Ki(calpain)<30) | ++ (Ki(cathepsin L)/Ki(calpain) ratio of ≧50) | ++ (Ki(cathepsin S)/Ki(calpain) ratio of ≧100) |

Source: patent publication US7728012B2, “Carboxamide compounds and their use as calpain inhibitors” (Abbott GmbH & Co. KG, priority 2006, dated 2010)
